Experimental data from patent publication US11407763B2, “Tryptophan hydroxylase inhibitor and pharmaceutical composition including same” (GWANGJU INSTITUTE OF SCIENCE AND TECHNOLOGY, priority 2017, dated 2022).
Structures can show the parent of a compound that is named as a salt.

Key:
[1] = tested on: DSS colitis; experiment: DSS colitis mouse model: colon length and colon looseness; format: in vivo, C57BL/6J mice; details: 100 mg/kg and 300 mg/kg oral, 7 days, 2.5% DSS
Experimental: (§1) C57BL/6J (Jackson Lab) male mice weighing 25±2 g at 9 weeks of age were used, and all the mice were fed freely by providing standard experimental feed. The compound of Example 53 and LX1606 were dissolved in 0.25% methylcellulose (MC) solution, which was orally administered to mice at the dose of 100 and 300 mg/kg/time using a 1 mL syringe. The compound of Example 53 and LX1606 were administered for 7 days, starting one day prior to dextran sulfate sodium (DSS) administration. Before and after the administration, the samples of colon tissue were collected from each mouse treated with the compound of Example 53 or the control drug (LX1606) to confirm clinical symptoms. Data are expressed as mean±standard error of mean (SEM), and all statistical analyses were performed using GraphPad Prism (version 5.0, GraphPad Software, La Jolla, Calif.). Differences in mean between groups were statistically analyzed by two-way analysis of variance (ANOVA) and multiple comparison tests to reveal the differences between the experimental groups. P<0.05 was considered statistically significant.
Enteritis was induced in mice by freely drinking 2.5% DSS (molecular weight: 36,000-50,000 M.Wt; manufactured by MP Biomedicals, Canada) aqueous solution for 6 days, and the body weight, stiffness of the stool, and the presence or absence of bloody stool were observed daily from the start of the administration. […]

[2] = tested on: DSS colitis; format: in vivo, C57BL/6J mice; details: mouse
Experimental: as §1, with “P<0.05 was considered statistically significant.” left out
Colon permeability was measured to confirm if the compound of the present invention affected the amelioration of inflammatory bowel disorder. […] The importance of the intestinal epithelial layer was measured by the changes in intercellular permeability and intimate junction function observed in inflammatory bowel disease (IBD) and colorectal cancer. […]

[3] = target: TPH1 (tryptophan hydroxylase 1) (Homo sapiens (Human), UniProt P17752); experiment: TPH1 inhibitor screening assay kit (BPS Bioscience), fluorescence; format: biochemical; details: TPH1 enzyme, 4 hours at 4° C., ex 300 nm / em 360 nm
Experimental: In order to confirm the inhibitory effect of the compound represented by formula 1 according to the present invention on the tryptophan hydroxylase activity, it was measured using a TPH1 (tryptophan hydroxylase 1) inhibitor screening assay kit (BPS Bioscience, Catalog #72053). The TPH1 inhibitor screening assay kit was used according to the manufacturer's manual.
Particularly, the synthesized compound was dissolved in DMSO, which was added to a 96-well microplate (10 ? /well), to which TPH1 enzyme was added (40 ? /well). Then, TPH1 reaction solution was added to the microplate (50 ? /well) and the microplate was shaded with aluminum foil. The microplate was transferred to 4° C. environment, shaken carefully and incubated for 4 hours. After adding a quench solution to the microplate (10 ? /well), the TPH1 activity was measured by reading the degree of fluorescence color development with a Flexstation3 microplate reader. At this time, the excitation spectrum was 300 nm and the emission spectrum was 360 nm.

Sequence of TPH1 (tryptophan hydroxylase 1) (P17752 whole entry): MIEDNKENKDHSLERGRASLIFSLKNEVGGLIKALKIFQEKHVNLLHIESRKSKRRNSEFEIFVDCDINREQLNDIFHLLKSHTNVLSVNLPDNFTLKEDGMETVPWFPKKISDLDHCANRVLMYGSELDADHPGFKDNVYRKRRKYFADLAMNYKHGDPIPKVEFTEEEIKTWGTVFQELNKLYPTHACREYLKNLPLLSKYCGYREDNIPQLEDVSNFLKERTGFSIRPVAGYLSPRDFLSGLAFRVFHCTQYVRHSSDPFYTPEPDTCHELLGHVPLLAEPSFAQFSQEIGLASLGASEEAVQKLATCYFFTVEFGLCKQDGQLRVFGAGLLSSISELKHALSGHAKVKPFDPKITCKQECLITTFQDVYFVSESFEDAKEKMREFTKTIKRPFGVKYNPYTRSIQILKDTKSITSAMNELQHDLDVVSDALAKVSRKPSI

Row | SMILES | IC50 [3] [nM] | other results
1 | CCOC(=O)[C@@H](N)Cc1ccc(-c2cc(O[C@H](c3ccc(Cl)cc3-n3ccc(C)n3)C(F)(F)F)nc(N)n2)cc1 [LX1606, (2S)-2-Amino-3-[4-[2-amino-6-[[(1R)-1-[4-chloro-2-(3-methylpyrazol-1-yl)phenyl]-2,2,2-trifluoroethyl]oxy]pyrimidin-4-yl]phenyl]propionic acid ethyl ester] |  | colon length compared with vehicle group [1]: not longer than that of the group treated with vehicle
2 | CCOC(=O)[C@@H](N)CC1CC=C(c2cc(O[C@H](c3ccc(Cl)cc3-n3ccc(C)n3)C(F)(F)F)nc(N)n2)CC1 (stereo partly drawn) [Example 53, ethyl (2S)-2-amino-3-(4-(2-amino-6-((R)-1-(4-chloro-2-(3-methyl-1H-pyrazole-1-yl)phenyl)-2,2,2-trifluoroethoxy)pyrimidine-4-yl)cyclohex-3-ene-1-yl)propionate hippurate] |  | colon permeability [2]: lower permeability was observed on average
3 | N[C@@H](Cc1ccc(-c2csc3c(O[C@H](c4ccc(Cl)cc4-c4cccc(F)c4)C(F)(F)F)ncnc23)cc1)C(=O)O [Example 24, (S)-2-amino-3-(4-(4-((R)-1-(5-chloro-3′-fluoro-[1,1′-biphenyl]-2-yl)-2,2,2-trifluoroethoxy)thieno[3,2-d]pyrimidine-7-yl)phenyl)propionic acid hydrochloride] | 565 | 
4 | Cc1ccn(-c2cc(Cl)ccc2[C@@H](Oc2ncnc3c(C4=CCC(C[C@H](N)C(=O)O)CC4)csc23)C(F)(F)F)n1 (stereo partly drawn) [Example 30, (2S)-2-amino-3-(4-(4-((R)-1-(4-chloro-2-(3-methyl-1H-pyrazole-1-yl)phenyl)-2,2,2-trifluoroethoxy)thieno[3,2-d]pyrimidine-7-yl)cyclohex-3-ene-1-yl)propionic acid hydrochloride] | 1510 | 
5 | Cc1ccn(-c2cc(Cl)ccc2[C@@H](Oc2ncnc3c(C4=CCC5(CC4)CNC(C(=O)O)C5)csc23)C(F)(F)F)n1 (stereo partly drawn) [Example 84, 8-(4-((R)-1-(4-chloro-2-(3-methyl-1H-pyrazole-1-yl)phenyl)-2,2,2-trifluoroethoxy)thieno[3,2-d]pyrimidine-7-yl)-2-azaspiro[4.5]dec-7-ene-3-carboxylic acid hydrochloride] | 307 | 
6 | Nc1nc(O[C@H](c2ccc(Cl)cc2C2=CCOCC2)C(F)(F)F)cc(C2=CCC(C[C@H](N)C(=O)O)CC2)n1 (stereo partly drawn) [Example 85, (2S)-2-amino-3-(4-(2-amino-6-((R)-1-(4-chloro-2-(3,6-dihydro-2H-pyran-4-yl)phenyl)-2,2,2-trifluoroethoxy)pyrimidine-4-yl)cyclohex-3-ene-1-yl)propionic acid] | 940 | 
7 | CCOC(=O)[C@@H](N)Cc1ccc(-c2csc3c(O[C@H](c4ccc(Cl)cc4-n4ccc(C)n4)C(F)(F)F)ncnc23)cc1 [Example 22, ethyl (S)-2-amino-3-(4-(4-((R)-1-(4-chloro-2-(3-methyl-1H-pyrazole-1-yl)phenyl)-2,2,2-trifluoroethoxy)thieno[3,2-d]pyrimidine-7-yl)phenyl)propionate hydrochloride] | 993 | 
